Test results reported in US9212130B2, “Heterocyclic derivative and pharmaceutical composition comprising the same” (SHIONOGI & CO., LTD., priority 2010, dated 2015).

Legend:
CYP2C19 = CYP2C19 (Homo sapiens (Human), UniProt P33261); experiment: CYP inhibition test, mephenyloin 4'-hydroxylation; assay type: in vitro ADME; conditions: pooled human hepatic microsome; 50 μmol/L S-mephenitoin; given as 'five kinds'
Experimental: (§1) Using commercially available pooled human hepatic microsome, and employing, as markers, 7-ethoxyresorufin O-deethylation (CYP1A2), tolbutamide methyl-hydroxylation (CYP2C9), mephenyloin 4′-hydroxylation (CYP2C19), dextromethorphan O-demethylation (CYP2D6), and terfenedine hydroxylation as typical substrate metabolism reactions of human main five ([…] enzyme forms (CYP1A2, 2C9, 2C19, 2D6, 3A4), an inhibitory degree of each metabolite production amount by a test compound was assessed.
(§2) The reaction conditions were as follows: substrate, 0.5 μmol/L ethoxyresorufin (CYP1A2), 100 μmol/L tolbutamide (CYP2C9), 50 μmol/L S-mephenitoin (CYP2C19), 5 μmol/L dextromethorphan (CYP2D6), 1 μmol/L terfenedine (CYP3A4); reaction time, 15 minutes; reaction temperature, 37° C.; enzyme, pooled human hepatic microsome 0.2 mg protein/mL; test drug concentration, 1.0. 5.0, 10, 20 μmol/L (four points).
(§3) Each five kinds of substrates, human hepatic microsome, or a test drug in 50 mmol/L Hepes buffer as a reaction solution was added to a 96-well plate at the composition as described above. NADPH, as a cofactor was added to initiate metabolism reactions as markers and, after the incubation at 37° C. for 15 minutes, a methanol/acetonitrile=1/1 (v/v) solution was added to stop the reaction. After the centrifugation at 3000 rpm for 15 minutes, resorufin (CYP1A2 metabolite) in the supernatant was quantified by a fluorescent multilabel counter and tributamide hydroxide (CYP2CP metabolite), mephenyloin 4′ hydroxide (CYP2C19 metabolite), […], and terfenadine alcohol (CYP3A4 metabolite) were quantified by LC/MS/MS.
(§4) Addition of only DMSO being a solvent dissolving a drug to a reaction system was adopted as a control (100%), remaining activity (%) was calculated at each concentration of a test drug added as the solution and IC50 was calculated by reverse presumption by a logistic model using a concentration and an inhibition rate.

CYP2D6 = CYP2D6 (Homo sapiens (Human), UniProt P10635); experiment: CYP inhibition test, dextromethorphan O-demethylation; assay type: in vitro ADME; conditions: pooled human hepatic microsome; 5 μmol/L dextromethorphan; given as 'five kinds'
Experimental: as §1, §2, §3, §4

human P2X3 receptor = human P2X3 receptor (Homo sapiens (Human), UniProt P56373); experiment: Evaluation of human P2X3 receptor inhibitory activity (ATP-induced Fluo-3 fluorescence, FDSS 3000); assay type: cell-based; conditions: C6BU-1 cell transfected with human P2X3 receptor gene
Outline: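 Human P2X3 inhibition read as ATP-evoked Fluo-3 calcium fluorescence; compound preincubated, then 50 nM ATP solution (concentration as dispensed) added and fluorescence followed 3 min. Response taken as peak-to-baseline fluorescence ratio per well; IC50 derived from concentration–response.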

CYP2C9 = CYP2C9 (Homo sapiens (Human), UniProt P11712); experiment: CYP inhibition test, tolbutamide methyl-hydroxylation; assay type: in vitro ADME; conditions: pooled human hepatic microsome; 100 μmol/L tolbutamide; given as 'five kinds'
Experimental: as §1, §2, §3, §4

[1] = Metabolism stability test (pooled human hepatic microsomes); assay type: in vitro ADME; conditions: human liver microsomes 0.5 mg protein/mL; 37° C., 30 minutes; 1 mmol/L NADPH; compound concentration 0.5 μmol/L
Experimental: Using commercially available pooled human hepatic microsomes, a test compound was reacted for a constant time, a remaining rate was calculated by comparing a reacted sample and an unreacted sample, thereby, a degree of metabolism in liver was assessed.
A reaction was performed (oxidative reaction) at 37° C. for 0 minute or 30 minutes in the presence of 1 mmol/L NADPH in 0.2 mL of a buffer (50 mmol/L tris-HCl pH 7.4, 150 mmol/L potassium chloride, 10 mmol/L magnesium chloride) containing 0.5 mg protein/mL of human liver microsomes. After the reaction, 50 μL of the reaction solution was added to 100 μL of a methanol/acetonitrile 1/1 (v/v), mixed and centrifuged at 3000 rpm for 15 minutes. The test compound in the supernatant was quantified by LC/MS/MS, and a remaining amount of the test compound after the reaction was calculated, letting a compound amount at 0 minute reaction time to be 100%.

CYP1A2 = CYP1A2 (Homo sapiens (Human), UniProt P05177); experiment: CYP inhibition test, 7-ethoxyresorufin O-deethylation; assay type: in vitro ADME; conditions: pooled human hepatic microsome; 0.5 μmol/L ethoxyresorufin; given as 'five kinds'
Experimental: as §1, §2, §3, §4

CYP3A4 [2] = biological target: T1, CYP3A4 (Homo sapiens (Human), UniProt P08684); experiment: CYP inhibition test, terfenedine hydroxylation; assay type: in vitro ADME; conditions: pooled human hepatic microsome; 1 μmol/L terfenedine; given as 'five kinds'
Experimental: as §1, §2, §3, §4

CYP3A4 [3] = biological target: T1, CYP3A4; experiment: CYP3A4 fluorescent MBI test; assay type: in vitro ADME; conditions: pre-reaction time 0 or 30 minutes; substrate 7-BFC; CYP3A4 expressed in Escherichia coli
Experimental: The CYP3A4 fluorescent MBI test is a test of investigating enhancement of CYP3A4 inhibition of a compound by a metabolism reaction, and the test is performed using, as CYP3A4 enzyme expressed in Escherichia coli and employing, as an index, a reaction in which 7-benzyloxytrifluoromethylchmarin (BFC) is debenzylated by the CYP3A4 enzyme to produce a metabolite, 7-hydroxytrifluoromethylchmarin (HFC) emitting fluorescent light.
The reaction conditions were as follows: substrate, 5.6 μmol/L 7-BFC; pre-reaction time, 0 or 30 minutes; reaction time, 15 minutes; reaction temperature, 25° C.
An enzyme in a K-Pi buffer (pH 7.4) and a test drug solution as a pre-reaction solution were added to a 96-well plate at the composition of the pre-reaction, a part of it was transferred to another 96-well plate so that it was 1/10 diluted by a substrate in a K-Pi buffer, NADPH as a co-factor was added to initiate a reaction as an index (without preincubation) and, after a predetermined time of a reaction, acetonitrile: 0.5 mol/L Tris (trishydroxyaminomethane)=4:1 was added to stop the reaction. In addition, NADPH was added to a remaining preincubation solution to initiate a preincubation (with preincubation) and, after a predetermined time of a preincubation, a part was transferred to another plate so that it was 1/10 diluted with a substrate and a K-Pi buffer to initiate a reaction as an index, After a predetermined time of a reaction, acetonitrile: 0.5 mol/L Tris (trishydroxyaminomethane)=4:1 was added to stop the reaction. For the plate on which each index reaction had been performed, a fluorescent value of 7-HFC which is a metabolite was measured with a fluorescent plate reader. (Ex=420 nm, Em=535 nm).
Addition of only DMSO which is a solvent dissolving a drug to a reaction system was adopted as a control (100%), remaining activity (%) was calculated at each concentration of a test drug added as the solution, and IC50 was calculated by reverse-presumption by a logistic model using a concentration and an inhibition rate. When a difference between IC50 values is 5 or more, this was defined as (+) and, when the difference is 3 μmol/L or less, this was defined as (−).

Solubility test = assay type: physicochemical; conditions: artificial intestinal juice (phosphate buffer) with 1% DMSO, 25 °C, other biorelevant, kinetic from dmso stock, artificial intestinal juice in pH 8.8, 25 degrees Celsius for 16 hours
Experimental: The solubility of a compound was determined under a condition in which 1% DMSO was added. 10 mmol/L compound solution was prepared using DMSO, and then 6 μL of the compound solution was added to 594 μL of artificial intestinal juice in […] (to 250 mL of 0.2 mol/L potassium dihydrogen phosphate reagent solution was added 118 mL of 0.2 mol/L NaOH reagent solution and water to provide a final volume of 1000 mL). After standing at 25 degrees Celsius for 16 hours, the mixed solution was filtrated with suction. The filtrate was diluted twice with methanol/water (1/1) and then a concentration in the filtration was measured with HPLC or LC/MS/MS by the absolute calibration method.

Sequence of CYP1A2 (P05177 whole entry): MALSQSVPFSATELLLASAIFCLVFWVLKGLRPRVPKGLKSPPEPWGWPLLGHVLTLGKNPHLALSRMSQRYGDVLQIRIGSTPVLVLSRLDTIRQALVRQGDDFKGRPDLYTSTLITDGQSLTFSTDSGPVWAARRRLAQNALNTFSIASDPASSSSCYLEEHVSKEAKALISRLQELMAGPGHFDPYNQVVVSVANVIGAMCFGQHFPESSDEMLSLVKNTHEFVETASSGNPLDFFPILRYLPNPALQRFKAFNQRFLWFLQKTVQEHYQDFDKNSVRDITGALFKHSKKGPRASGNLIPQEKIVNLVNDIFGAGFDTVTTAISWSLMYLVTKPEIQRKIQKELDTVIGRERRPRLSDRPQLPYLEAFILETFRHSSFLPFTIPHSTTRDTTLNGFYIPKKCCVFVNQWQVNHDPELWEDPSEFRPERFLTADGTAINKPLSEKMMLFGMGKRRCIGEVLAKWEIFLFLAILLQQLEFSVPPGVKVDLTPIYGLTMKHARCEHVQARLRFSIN
Sequence of CYP2C9 (P11712 whole entry): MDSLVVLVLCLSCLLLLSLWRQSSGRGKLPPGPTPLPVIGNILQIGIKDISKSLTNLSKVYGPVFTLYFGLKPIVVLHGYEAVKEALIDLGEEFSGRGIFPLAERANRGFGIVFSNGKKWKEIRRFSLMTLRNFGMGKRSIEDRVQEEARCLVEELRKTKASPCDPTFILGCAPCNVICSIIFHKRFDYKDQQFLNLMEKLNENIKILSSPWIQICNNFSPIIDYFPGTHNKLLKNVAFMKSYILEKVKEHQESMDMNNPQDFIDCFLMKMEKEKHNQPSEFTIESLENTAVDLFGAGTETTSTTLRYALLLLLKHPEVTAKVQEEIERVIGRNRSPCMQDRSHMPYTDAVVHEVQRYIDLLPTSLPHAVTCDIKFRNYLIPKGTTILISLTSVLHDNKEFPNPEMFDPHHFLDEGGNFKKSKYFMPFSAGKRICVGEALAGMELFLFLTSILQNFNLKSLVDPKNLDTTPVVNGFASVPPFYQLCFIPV
Sequence of human P2X3 receptor (P56373 whole entry): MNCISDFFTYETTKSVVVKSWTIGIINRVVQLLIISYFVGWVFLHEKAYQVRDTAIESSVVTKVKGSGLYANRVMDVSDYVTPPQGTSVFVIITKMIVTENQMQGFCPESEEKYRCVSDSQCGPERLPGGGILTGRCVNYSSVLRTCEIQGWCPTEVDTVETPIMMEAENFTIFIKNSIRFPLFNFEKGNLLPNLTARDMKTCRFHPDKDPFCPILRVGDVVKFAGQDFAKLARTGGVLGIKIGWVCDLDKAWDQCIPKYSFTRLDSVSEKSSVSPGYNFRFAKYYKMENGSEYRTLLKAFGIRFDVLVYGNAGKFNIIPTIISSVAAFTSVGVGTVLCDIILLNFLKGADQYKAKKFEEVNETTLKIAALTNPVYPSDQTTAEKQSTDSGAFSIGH
Sequence of CYP2C19 (P33261 whole entry): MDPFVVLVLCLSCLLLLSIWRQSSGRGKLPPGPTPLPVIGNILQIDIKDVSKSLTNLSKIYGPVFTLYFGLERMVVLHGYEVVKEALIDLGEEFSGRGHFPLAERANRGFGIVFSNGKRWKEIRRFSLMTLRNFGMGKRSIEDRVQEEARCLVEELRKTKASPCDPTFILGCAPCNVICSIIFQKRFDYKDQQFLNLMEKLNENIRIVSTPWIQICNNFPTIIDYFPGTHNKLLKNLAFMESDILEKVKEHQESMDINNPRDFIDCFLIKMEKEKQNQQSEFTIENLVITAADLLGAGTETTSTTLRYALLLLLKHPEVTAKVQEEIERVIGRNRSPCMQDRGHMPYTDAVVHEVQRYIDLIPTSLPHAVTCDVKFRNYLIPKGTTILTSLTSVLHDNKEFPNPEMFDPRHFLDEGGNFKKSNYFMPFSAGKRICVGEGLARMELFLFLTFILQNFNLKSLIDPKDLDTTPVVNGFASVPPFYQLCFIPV
Sequence of CYP2D6 (P10635 whole entry): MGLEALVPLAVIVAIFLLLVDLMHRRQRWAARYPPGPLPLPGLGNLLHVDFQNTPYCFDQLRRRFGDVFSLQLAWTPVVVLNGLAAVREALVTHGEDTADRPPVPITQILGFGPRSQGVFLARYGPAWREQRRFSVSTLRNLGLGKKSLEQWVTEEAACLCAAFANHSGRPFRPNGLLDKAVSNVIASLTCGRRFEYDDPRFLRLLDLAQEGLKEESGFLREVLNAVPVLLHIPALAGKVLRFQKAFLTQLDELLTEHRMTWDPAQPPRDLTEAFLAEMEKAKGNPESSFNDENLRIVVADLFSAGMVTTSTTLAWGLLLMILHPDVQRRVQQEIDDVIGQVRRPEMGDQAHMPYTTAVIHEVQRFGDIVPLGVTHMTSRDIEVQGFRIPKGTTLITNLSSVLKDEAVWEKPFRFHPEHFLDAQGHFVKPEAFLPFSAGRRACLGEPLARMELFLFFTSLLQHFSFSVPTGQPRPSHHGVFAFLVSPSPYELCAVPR
T1 sequence (P08684 whole entry): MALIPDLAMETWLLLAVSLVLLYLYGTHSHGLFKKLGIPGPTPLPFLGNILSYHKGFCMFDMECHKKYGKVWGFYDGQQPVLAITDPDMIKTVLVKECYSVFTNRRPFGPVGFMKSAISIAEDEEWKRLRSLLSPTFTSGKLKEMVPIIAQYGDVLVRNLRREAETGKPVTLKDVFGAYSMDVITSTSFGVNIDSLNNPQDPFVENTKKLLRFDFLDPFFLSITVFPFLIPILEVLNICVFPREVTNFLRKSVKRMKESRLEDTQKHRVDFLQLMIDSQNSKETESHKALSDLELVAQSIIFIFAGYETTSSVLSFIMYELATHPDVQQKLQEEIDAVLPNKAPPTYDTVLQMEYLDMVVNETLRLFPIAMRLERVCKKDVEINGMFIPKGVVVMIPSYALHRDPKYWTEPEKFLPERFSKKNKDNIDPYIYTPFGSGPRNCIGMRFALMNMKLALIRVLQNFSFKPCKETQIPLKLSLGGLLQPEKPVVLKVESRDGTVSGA

## CC(C)Oc1ccc(Nc2nc(=O)c(C(=O)NC3CCOCC3)cn2Cc2ccc(Cl)cc2)cc1F [I-241]
CYP2C19
  IC50: > 20 µM
CYP2D6
  IC50: > 20 µM
Human P2X3 receptor
  IC50: 0.031 µM
CYP2C9
  IC50: > 20 µM
[1]
  remaining rate: 88%
CYP1A2
  IC50: > 20 µM
CYP3A4 [2]
  IC50: > 20 µM

## O=C(O)c1cncc(Oc2ccc(Nc3ncc(NC(=O)C4CCOCC4)c(=O)n3Cc3ccc(Cl)cc3)cc2)c1 [I-305]
CYP2C19
  IC50: > 20 µM
CYP2D6
  IC50: > 20 µM
Human P2X3 receptor
  IC50: 0.004 µM
CYP3A4 [3]
  IC50 difference: < 3 µM
CYP2C9
  IC50: > 20 µM
Solubility test
  solubility at 16 h: > 50 µM
CYP1A2
  IC50: > 20 µM
CYP3A4 [2]
  IC50: > 20 µM

## Cc1nc2ccc(Nc3cc(=O)n(CCCC(=O)O)c(=O)n3Cc3ccc(Cl)cc3)cc2s1 [I-354]
CYP2C19
  IC50: > 20 µM
CYP2D6
  IC50: > 20 µM
Human P2X3 receptor
  IC50: 0.094 µM
CYP3A4 [3]
  IC50 difference: < 3 µM
CYP2C9
  IC50: > 20 µM
CYP1A2
  IC50: > 20 µM
CYP3A4 [2]
  IC50: > 20 µM
